Data: PubChem BioAssay (NCI)
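Cultured in 96-well plates, cells were exposed to test compound for 48 hours across five concentrations. TGI denotes the concentration required for complete inhibition of growth.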

Columns and labels:
Test in all cases: inhibition of tumour cell growth, NCI panel, 48 h
786-0 renal = test system: 786-0 renal
A498 renal = test system: A498 renal
A549 NSCLC = test system: A549 NSCLC
ACHN renal = test system: ACHN renal
BT-549 breast = test system: BT-549 breast
CAKI-1 renal = test system: CAKI-1 renal
COLO 205 colon = test system: COLO 205 colon
DU-145 prostate = test system: DU-145 prostate
EKVX NSCLC = test system: EKVX NSCLC
HCT-116 colon = test system: HCT-116 colon
HCT-15 colon = test system: HCT-15 colon
HOP-62 NSCLC = test system: HOP-62 NSCLC
HOP-92 NSCLC = test system: HOP-92 NSCLC
HT29 colon = test system: HT29 colon
IGROV1 ovarian = test system: IGROV1 ovarian
K-562 leukemia = test system: K-562 leukemia
KM12 colon = test system: KM12 colon
LOX IMVI melanoma = test system: LOX IMVI melanoma
M14 melanoma = test system: M14 melanoma
MALME-3M melanoma = test system: MALME-3M melanoma
MDA-MB-231 breast = test system: MDA-MB-231 breast
MDA-MB-435 = test system: MDA-MB-435
MDA-N = test system: MDA-N
MOLT-4 leukemia = test system: MOLT-4 leukemia
NCI-H226 lung = test system: NCI-H226 lung
NCI-H23 lung = test system: NCI-H23 lung
NCI-H460 lung = test system: NCI-H460 lung
NCI-H522 lung = test system: NCI-H522 lung
NCI/ADR-RES ovarian = test system: NCI/ADR-RES ovarian
OVCAR-3 ovarian = test system: OVCAR-3 ovarian
OVCAR-4 ovarian = test system: OVCAR-4 ovarian
OVCAR-5 ovarian = test system: OVCAR-5 ovarian
OVCAR-8 ovarian = test system: OVCAR-8 ovarian
RPMI-8226 leukemia = test system: RPMI-8226 leukemia
RXF 393 renal = test system: RXF 393 renal
SF-268 CNS = test system: SF-268 CNS
SF-295 CNS = test system: SF-295 CNS
SF-539 CNS = test system: SF-539 CNS
SK-MEL-28 melanoma = test system: SK-MEL-28 melanoma
SK-MEL-5 melanoma = test system: SK-MEL-5 melanoma
SK-OV-3 ovarian = test system: SK-OV-3 ovarian
SN12C renal = test system: SN12C renal
SNB-19 CNS = test system: SNB-19 CNS
SNB-75 CNS = test system: SNB-75 CNS
SW-620 colon = test system: SW-620 colon
T-47D breast = test system: T-47D breast
TK-10 renal = test system: TK-10 renal
U251 CNS = test system: U251 CNS
UACC-257 melanoma = test system: UACC-257 melanoma
UO-31 renal = test system: UO-31 renal
CCRF-CEM leukemia = test system: CCRF-CEM leukemia
HCC-2998 colon = test system: HCC-2998 colon
HL-60(TB) leukemia = test system: HL-60(TB) leukemia
HS 578T breast = test system: HS 578T breast
PC-3 prostate = test system: PC-3 prostate
SK-MEL-2 melanoma = test system: SK-MEL-2 melanoma
SR leukemia = test system: SR leukemia
UACC-62 melanoma = test system: UACC-62 melanoma
MCF7 breast = test system: MCF7 breast

Measured: TGI

CC(=O)[C@@]1(C)CC2(CCN(C)CC2)OC1C (some centres not stated)
not listed: CCRF-CEM leukemia | HCC-2998 colon | HL-60(TB) leukemia | HS 578T breast | PC-3 prostate | SK-MEL-2 melanoma | SR leukemia | UACC-62 melanoma | MCF7 breast
> 100 µM: all other assays above

O=C(CP(=O)(O)O)NC(CC(=O)OCc1ccccc1)C(=O)OCc1ccccc1 (configuration not stated)
not listed: BT-549 breast | KM12 colon | LOX IMVI melanoma | TK-10 renal | MCF7 breast
> 100 µM: all other assays above

[N-]=[N+]=C1N=CN=C1c1ncn[nH]1
56.3 µM: UACC-62 melanoma
40.5 µM: HL-60(TB) leukemia
37.5 µM: CAKI-1 renal
52.2 µM: SF-539 CNS
45 µM: HOP-92 NSCLC
37.1 µM: MOLT-4 leukemia
60 µM: K-562 leukemia
27.6 µM: CCRF-CEM leukemia
93.9 µM: SN12C renal
38.8 µM: RPMI-8226 leukemia
40 µM: LOX IMVI melanoma
83 µM: T-47D breast
86.3 µM: UO-31 renal
not listed: BT-549 breast | NCI-H460 lung | OVCAR-5 ovarian | SF-268 CNS | HS 578T breast | SR leukemia
> 100 µM: all other assays above

COC(=O)/C(=C\Nc1cccc(C)n1)S(=O)(=O)c1ccc(C)cc1
53.3 µM: HL-60(TB) leukemia
91.5 µM: UACC-62 melanoma
49.9 µM: COLO 205 colon
90.3 µM: KM12 colon
75.5 µM: K-562 leukemia
70.4 µM: MOLT-4 leukemia
not listed: A498 renal | BT-549 breast | CAKI-1 renal | EKVX NSCLC
> 100 µM: all other assays above
